The nature of test [1]: P. falciparum late gametocyte killing, dose response, luminescence (AID 1117278).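 Also: gametocytes exposed to compound for 24 hours.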 Type of test: functional, cell-based.
Test [2] is described as follows: Jurkat T cell cytotoxicity, dose response, cytotoxicity control for P. falciparum gametocyte viability project, luminescence (AID 1117277).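 Also: potency reflects loss of cellular ATP meaning fewer viable cells.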 Type of test: functional, cell-based.
Test [3] concerns the target RNA-editing ligase 1, mitochondrial (Trypanosoma brucei brucei, UniProt P86926). Briefly: TbREL1 ligase inhibitors, dose response, biochemical, fluorescence, Trypanosoma brucei (AID 1117295). It counts as functional.
Test [4] in a line: Mtb BioA inhibitors by displacement, dose response, biochemical, coupled fluorescence displacement, 20-point, dry powder (AID 743357). Type of test: functional.
The target in another test is NADPH oxidase 1 (Homo sapiens, UniProt Q9Y5S8). Briefly: Late-stage luminescence-based cell-based dose response assay to identify inhibitors of NADPH oxidase 1 (NOX1): Synthesized analogs. It counts as functional.
Sequence of NADPH oxidase 1 (Q9Y5S8 whole entry): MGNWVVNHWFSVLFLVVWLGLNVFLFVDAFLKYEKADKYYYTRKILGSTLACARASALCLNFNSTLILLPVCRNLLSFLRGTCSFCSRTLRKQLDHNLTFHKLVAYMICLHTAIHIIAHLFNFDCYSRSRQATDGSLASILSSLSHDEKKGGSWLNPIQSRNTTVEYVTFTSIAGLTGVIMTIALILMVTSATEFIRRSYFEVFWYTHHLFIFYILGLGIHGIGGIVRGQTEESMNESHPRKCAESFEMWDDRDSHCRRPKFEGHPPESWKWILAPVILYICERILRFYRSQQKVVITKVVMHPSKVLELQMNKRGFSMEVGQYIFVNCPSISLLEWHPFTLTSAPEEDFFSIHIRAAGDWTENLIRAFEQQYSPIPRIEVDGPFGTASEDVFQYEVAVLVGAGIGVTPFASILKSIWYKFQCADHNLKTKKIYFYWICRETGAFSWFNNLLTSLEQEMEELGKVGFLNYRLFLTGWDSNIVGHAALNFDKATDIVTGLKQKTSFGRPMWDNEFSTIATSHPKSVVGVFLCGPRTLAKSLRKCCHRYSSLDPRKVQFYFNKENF
Test [5] can be described thus: Luminescence Cell-Based Dose Confirmation HTS to Identify Activators of 5'UTR Stem-Loop Driven Alpha-Synuclein mRNA Translation in H4 Neuroglioblastoma Cells. [Related pubchem assays: 1829 (Project Summary), 1814 (Primary HTS)]. It counts as functional.
Test [6] in a line: Luminescence Cell-Based Dose Response HTS to Identify Activators of Luciferase Translation or Activity in H4 […] Cells. [Related pubchem assays: 1829 (Project Summary), 1814 (Primary HTS)]. It counts as functional.
The subject of another test is H4. The test can be described thus: Luminescence Cell-Based Dose Response HTS to Identify Activators of 5'UTR Stem-Loop Driven Prion Protein mRNA Translation in H4 Neuroglioblastoma Cells. [Related pubchem assays: 1829 (Project Summary), 1814 (Primary HTS)]. It counts as functional. As to conditions: Homo sapiens.
The target of test [7] is T1, Sphingosine 1-phosphate receptor 2 (Homo sapiens, UniProt O95136). The test can be described thus: Dose Response Cell Based Assay for Antagonists of the S1P2 Receptor. [Related pubchem assays: 856, 736 ]. Type of test: functional.
T1 sequence (O95136 whole entry): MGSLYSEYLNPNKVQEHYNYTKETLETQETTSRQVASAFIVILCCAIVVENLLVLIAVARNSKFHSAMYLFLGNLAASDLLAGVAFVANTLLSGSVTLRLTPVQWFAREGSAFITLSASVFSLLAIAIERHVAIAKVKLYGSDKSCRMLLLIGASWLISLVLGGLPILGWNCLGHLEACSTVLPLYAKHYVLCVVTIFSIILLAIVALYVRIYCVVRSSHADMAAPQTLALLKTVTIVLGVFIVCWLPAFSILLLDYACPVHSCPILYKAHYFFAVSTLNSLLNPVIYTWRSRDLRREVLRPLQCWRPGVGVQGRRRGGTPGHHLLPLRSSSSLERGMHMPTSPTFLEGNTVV
The nature of test [8]: cytotoxicity in HPDE-C7 cells, cell-based, fluorescence, HTS (AID 430). It counts as functional. As to conditions: Homo sapiens.
Test [9] can be described thus: cytotoxicity in KRAS-transformed pancreatic duct cells, primary screen, cell-based, fluorescence, HTS (AID 431).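 Also: cell line used: HPDE-C7K.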 Type of test: functional. As to conditions: Homo sapiens.
Test [10] in a line: Dose-response inhibition of insulin secretion in a rat insulinoma line at 5 mM glucose (AID 1117331). Type of test: functional, cell-based. Conditions: INS-1E.
Another test addresses T2, Aminopeptidase N (Plasmodium falciparum FcB1/Columbia, UniProt O96935).
T2 sequence (O96935 whole entry): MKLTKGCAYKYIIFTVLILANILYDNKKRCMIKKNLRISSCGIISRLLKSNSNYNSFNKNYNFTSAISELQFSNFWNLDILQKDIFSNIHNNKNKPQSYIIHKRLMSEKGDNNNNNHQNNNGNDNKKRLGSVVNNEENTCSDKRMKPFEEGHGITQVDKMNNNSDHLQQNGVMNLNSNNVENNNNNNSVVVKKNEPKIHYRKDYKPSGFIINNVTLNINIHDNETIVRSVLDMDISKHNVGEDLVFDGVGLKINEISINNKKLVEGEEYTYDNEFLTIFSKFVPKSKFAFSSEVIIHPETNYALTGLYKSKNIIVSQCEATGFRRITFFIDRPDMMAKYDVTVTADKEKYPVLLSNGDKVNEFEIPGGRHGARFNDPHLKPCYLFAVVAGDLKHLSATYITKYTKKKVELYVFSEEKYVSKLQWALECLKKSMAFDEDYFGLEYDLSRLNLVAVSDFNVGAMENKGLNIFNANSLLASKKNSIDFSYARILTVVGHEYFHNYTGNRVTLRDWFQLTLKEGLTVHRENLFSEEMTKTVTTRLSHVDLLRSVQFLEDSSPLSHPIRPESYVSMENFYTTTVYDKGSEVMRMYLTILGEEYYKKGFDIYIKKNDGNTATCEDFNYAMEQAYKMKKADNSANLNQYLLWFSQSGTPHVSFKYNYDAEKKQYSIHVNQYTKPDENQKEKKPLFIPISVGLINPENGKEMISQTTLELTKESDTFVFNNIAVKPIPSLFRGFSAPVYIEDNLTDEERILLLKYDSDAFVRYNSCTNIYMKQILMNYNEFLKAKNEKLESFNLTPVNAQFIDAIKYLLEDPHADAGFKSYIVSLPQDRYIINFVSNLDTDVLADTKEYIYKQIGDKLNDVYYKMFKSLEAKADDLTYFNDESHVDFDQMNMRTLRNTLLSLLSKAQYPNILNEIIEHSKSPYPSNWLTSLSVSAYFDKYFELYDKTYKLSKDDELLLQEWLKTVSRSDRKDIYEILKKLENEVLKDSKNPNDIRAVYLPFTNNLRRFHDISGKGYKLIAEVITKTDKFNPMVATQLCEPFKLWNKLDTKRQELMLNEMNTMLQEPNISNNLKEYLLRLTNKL
Briefly: P. falciparum M1AAP inhibitors, biochemical, fluorogenic H-Leu-NHMec substrate, 1536-well (AID 1445). Set-up: species or system Plasmodium falciparum 3D7, 3D7.

Test [11] addresses T3, SUMO-activating enzyme (Homo sapiens, UniProt Q9UBT2). Briefly: SUMOylation inhibitor hit validation, confirmation, SUMOylation inhibitor project, biochemical, AlphaScreen (AID 2018). It counts as functional.
Test [12] addresses T3, SUMO-activating enzyme. Briefly: inhibitors of in vitro SUMOylation cascade, primary screen, biochemical, HTRF, uHTS (AID 2006). It counts as protein-complex assay. In general terms: In TR-FRET formats the signal depends on donor and acceptor labels being close together.
Test [13] has as its target E3 ubiquitin-protein ligase UHRF1 (Homo sapiens, UniProt Q96T88). Briefly: Counterscreen for inhibitors of 5-meCpG-binding domain protein 2 (MBD2): TRFRET-based biochemical high throughput dose response assay to identify inhibitors of binding of ubiquitin-like with PHD and ring finger domains 1 (UHRF1) to methylated oligonucleotide. A general note: The purpose of a counterscreen is to sort out artefacts and off-target activity.

A short description of test [14]: P. falciparum 3D7-ScDHODH growth inhibitors, dose response, SYBR Green, dry powder samples (AID 1159570).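 Also: parasite growth measured after 72 hours of compound exposure.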 Type of test: functional, cell-based.
Test [15] can be described thus: HepG2 cell cytotoxicity, dose response, cytotoxicity control, plate reader, dry powder samples (AID 1159569).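 Also: inhibitor potency with signal falling toward the positive control level.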 It counts as functional, cell-based.
Test [16] is described as follows: P. falciparum Dd2 growth inhibitors, dose response, SYBR Green, cherry-picked samples (AID 1159567). Type of test: functional, cell-based.
Test [17] can be described thus: P. falciparum Dd2 growth inhibitors, dose response, SYBR Green, dry powder samples (AID 1159566).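 Also: potency for growth inhibition with lower SYBR green DNA signal.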 It counts as functional, cell-based.
A short description of test [18]: P. falciparum ATP4 D1247Y mutant growth inhibitors, dose response, NITD609-resistant line, SYBR Green, dry powder (AID 1159571).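 Also: parasites synchronized at ring stage by sorbitol before testing.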 Type of test: functional, cell-based.
The target of test [19] is T1, Sphingosine 1-phosphate receptor 2. Briefly: Dose Response Cell Based Assay for Agonists of the S1P2 Receptor. [Related pubchem assays: 729, 736, 843 ]. It counts as functional.
Test [20] addresses Glutathione-S-transferase (Schistosoma japonicum, UniProt Q26513). Briefly: biotin-GST/anti-GST TR-FRET signal inhibitors, dose response, artefact control for Vif-APOBEC3G degradation inhibitor project, biochemical (AID 1117362). It counts as functional.
The nature of test [21]: HeLa 2N DNA content increase, dose response, cell-based, IC50 (AID 1117349). Type of test: functional.
The nature of test [22]: Concentration-dependent survival of SW480 colon cancer line, luminescence detection with CellTiter-Glo, half-maximal inhibitory concentration (AID 1117338). Type of test: functional. (In general: In ATP-based viability assays light output follows the ATP content of the culture.)
A short description of test [23]: RKO cell viability reduction, dose response, CellTiter-Glo luminescence (AID 1117322). It counts as functional.
The nature of test [24]: cytotoxicity toward HCT116 cells – cell-based, CellTiter-Glo luminescence, IC50, dose response (AID 1117332). Type of test: functional. Conditions: HCT-116.
The nature of test [25]: SNU-C1 cell viability reduction, dose response, CellTiter-Glo luminescence (AID 1117323). Type of test: functional, cell-based.
A short description of test [26]: half-maximal inhibitory concentration for glucagon-like peptide-1 release, STC-1 cell line, dose-response (AID 1117345). It counts as functional, cell-based.
Test [27] in a line: cytotoxicity toward Colo320 cells – cell-based, CellTiter-Glo luminescence, IC50, dose response (AID 1117334). It counts as functional. As to conditions: COLO 320.
Test [28] in a line: HeLa 4N DNA content increase, dose response, cell-based, IC50 (AID 1117351). It counts as functional.
A short description of test [29]: cytotoxicity toward HT-29 cells – cell-based, CellTiter-Glo luminescence, IC50, dose response (AID 1117330). It counts as functional.
Test [30] in a line: CellTiter-Glo luminescent dose response of DLD-1 viability loss (AID 1117352). Type of test: functional.
Test [31] in a line: HCT116 cell viability decrease, GSK3B pretreatment – CellTiter-Glo, IC50, dose response (AID 1117339). It counts as functional. As to conditions: HCT-116.
A short description of test [32]: Glucagon-like peptide 1 release potency, NCI-H716 cell line, dose-response, half-maximal inhibitory concentration (AID 1117344). Type of test: functional, cell-based.
In test [33] the target is Diphosphomevalonate decarboxylase (Streptococcus pneumoniae serotype 2 (strain D39 / NCTC 7466), UniProt Q9FD53). Briefly: S. pneumoniae DPM-DC inhibition retest, confirmation, biochemical, cuvette format, coupled NADH fluorescence (AID 1028). Type of test: functional.
Sequence of Diphosphomevalonate decarboxylase (Q9FD53 whole entry): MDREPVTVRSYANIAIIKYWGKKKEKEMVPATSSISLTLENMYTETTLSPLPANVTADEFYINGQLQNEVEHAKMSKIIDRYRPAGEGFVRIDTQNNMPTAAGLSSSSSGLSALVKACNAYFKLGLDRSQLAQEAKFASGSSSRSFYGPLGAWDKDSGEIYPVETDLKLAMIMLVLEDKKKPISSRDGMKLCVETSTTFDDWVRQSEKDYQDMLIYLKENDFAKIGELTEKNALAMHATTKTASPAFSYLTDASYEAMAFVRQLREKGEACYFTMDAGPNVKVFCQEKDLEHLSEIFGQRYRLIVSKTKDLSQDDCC

These results are taken from ChEMBL document CHEMBL1201862, “PubChem BioAssay data set” (2004).

Calls of active or inactive are those of the source. Bounds are passed on as bounds.

T3 sequence (Q9UBE0 whole entry): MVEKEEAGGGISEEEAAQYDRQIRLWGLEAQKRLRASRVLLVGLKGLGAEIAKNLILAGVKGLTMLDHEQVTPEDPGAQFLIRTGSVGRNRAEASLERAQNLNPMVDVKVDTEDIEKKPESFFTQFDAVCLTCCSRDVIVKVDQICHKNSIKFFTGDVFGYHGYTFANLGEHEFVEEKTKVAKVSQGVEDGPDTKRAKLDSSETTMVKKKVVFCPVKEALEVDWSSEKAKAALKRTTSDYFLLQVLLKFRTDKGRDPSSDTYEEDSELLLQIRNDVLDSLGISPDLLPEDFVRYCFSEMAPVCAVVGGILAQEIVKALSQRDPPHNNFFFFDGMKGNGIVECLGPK
T3 sequence (Q9UBT2 whole entry): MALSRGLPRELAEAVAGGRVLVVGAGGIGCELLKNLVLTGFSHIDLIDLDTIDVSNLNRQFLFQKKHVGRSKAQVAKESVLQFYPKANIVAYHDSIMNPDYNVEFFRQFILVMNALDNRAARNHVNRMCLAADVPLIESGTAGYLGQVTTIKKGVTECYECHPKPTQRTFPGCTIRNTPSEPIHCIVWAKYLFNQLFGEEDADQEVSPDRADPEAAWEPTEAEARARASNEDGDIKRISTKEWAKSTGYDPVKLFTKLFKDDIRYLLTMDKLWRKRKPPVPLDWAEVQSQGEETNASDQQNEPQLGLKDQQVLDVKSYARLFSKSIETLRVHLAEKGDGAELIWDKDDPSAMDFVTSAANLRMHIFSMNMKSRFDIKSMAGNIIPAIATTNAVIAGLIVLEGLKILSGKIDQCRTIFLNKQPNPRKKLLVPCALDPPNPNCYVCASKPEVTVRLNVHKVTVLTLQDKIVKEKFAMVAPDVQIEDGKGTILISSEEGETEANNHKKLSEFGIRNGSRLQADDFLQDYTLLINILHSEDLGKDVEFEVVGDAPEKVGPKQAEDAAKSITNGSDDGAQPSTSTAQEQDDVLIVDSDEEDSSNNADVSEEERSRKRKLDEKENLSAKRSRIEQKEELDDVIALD
Sequence of RNA-editing ligase 1, mitochondrial (P86926 whole entry): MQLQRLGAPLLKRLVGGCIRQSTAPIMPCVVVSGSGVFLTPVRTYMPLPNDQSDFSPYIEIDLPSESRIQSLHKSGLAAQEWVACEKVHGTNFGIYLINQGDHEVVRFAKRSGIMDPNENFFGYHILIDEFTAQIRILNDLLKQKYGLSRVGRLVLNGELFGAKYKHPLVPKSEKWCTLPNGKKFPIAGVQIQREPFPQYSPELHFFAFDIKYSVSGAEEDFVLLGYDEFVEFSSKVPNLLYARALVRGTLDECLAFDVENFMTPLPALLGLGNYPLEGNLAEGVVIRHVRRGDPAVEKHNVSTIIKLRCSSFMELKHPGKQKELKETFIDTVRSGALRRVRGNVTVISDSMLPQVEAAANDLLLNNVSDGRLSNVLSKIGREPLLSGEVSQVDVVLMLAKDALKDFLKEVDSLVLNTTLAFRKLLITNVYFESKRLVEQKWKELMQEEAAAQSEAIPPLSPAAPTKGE
Sequence of Glutathione-S-transferase (Q26513 whole entry): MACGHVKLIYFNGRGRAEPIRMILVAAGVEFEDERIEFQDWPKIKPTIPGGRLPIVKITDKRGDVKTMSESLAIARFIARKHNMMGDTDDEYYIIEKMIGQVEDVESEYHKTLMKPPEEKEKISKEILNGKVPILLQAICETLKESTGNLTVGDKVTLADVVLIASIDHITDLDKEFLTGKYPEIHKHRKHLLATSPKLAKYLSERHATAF
Sequence of E3 ubiquitin-protein ligase UHRF1 (Q96T88 whole entry, the tested form may be a part): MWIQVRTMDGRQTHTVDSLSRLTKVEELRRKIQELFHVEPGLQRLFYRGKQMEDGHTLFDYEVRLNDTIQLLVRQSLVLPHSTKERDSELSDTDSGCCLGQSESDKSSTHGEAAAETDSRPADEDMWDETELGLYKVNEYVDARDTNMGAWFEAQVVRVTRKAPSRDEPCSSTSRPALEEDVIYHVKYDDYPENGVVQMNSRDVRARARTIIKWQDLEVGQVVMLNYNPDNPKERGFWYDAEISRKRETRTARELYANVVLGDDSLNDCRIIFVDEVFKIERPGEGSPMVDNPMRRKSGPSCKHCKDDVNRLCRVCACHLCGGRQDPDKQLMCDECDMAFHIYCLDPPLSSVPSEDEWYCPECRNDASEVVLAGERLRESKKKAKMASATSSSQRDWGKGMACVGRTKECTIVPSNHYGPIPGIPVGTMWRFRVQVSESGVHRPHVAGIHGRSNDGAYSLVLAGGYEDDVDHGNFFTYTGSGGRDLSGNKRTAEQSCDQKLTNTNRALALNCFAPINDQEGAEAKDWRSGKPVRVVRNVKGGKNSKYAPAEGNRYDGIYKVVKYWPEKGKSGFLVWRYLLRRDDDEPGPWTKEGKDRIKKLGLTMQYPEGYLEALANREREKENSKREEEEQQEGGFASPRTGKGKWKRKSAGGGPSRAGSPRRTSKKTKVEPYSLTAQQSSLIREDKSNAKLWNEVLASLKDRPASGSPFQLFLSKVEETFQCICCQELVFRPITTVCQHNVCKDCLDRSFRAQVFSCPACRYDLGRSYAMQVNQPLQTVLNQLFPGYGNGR

In general, IC50 refers to the concentration needed to halve the response being measured. Turning to `Cc1ccccc1-c1nc(CN2CCCC(C(=O)NCCCN3CCOCC3)C2)c(C)o1` (stereo unspecified), the IC50 in test [1] was > 109 µM (inactive); in test [2] it was > 83.3 µM (inactive).
For `CC(C)c1c(Cl)c(O)c(-c2ccccc2)c(=O)n1-c1ccc(F)cc1`, the IC50 in [3] was 61.6 µM (inactive).
As usually defined, the AC50 is the concentration at which the activity in the assay is half-maximal. Turning to `COc1ccc(C(=O)N2CCN(c3ccc(C(C)=O)cc3)CC2)cc1OC`, the AC50 in [4] was 11.7 µM (active).
The EC50 is the concentration needed to bring the measured effect to its halfway point. Take `c1ccc2c(c1)Nc1cc3ccccc3cc1S2`: the IC50 on NADPH oxidase 1 is 7.58 µM (active). Moreover, the concentration for a half-maximal effect (EC50) was 98.5 µM (active) in test [5], 6.01 µM (active) in test [6] and 5.77 µM (active) with H4.
Take `O=C(O)c1sc2cc(C(F)(F)F)cnc2c1-c1ccccn1`: the IC50 in test [7] was > 30 µM (not active).
For `CN1C[C@H](CNC(=O)OCc2ccccc2)C[C@@H]2c3cccc4c3c(cn4C)C[C@H]21` [METERGOLINE], the EC50 in [8] and in [9] was > 20 µM (not active) in each case. Moreover, the IC50 in test [10] is > 33.3 µM (inactive).
In the case of `CCCN(C(=O)c1cc2c(s1)CCC2)c1c(N)n(Cc2ccccc2)c(=O)[nH]c1=O`, the IC50 is 77.2 µM (active) at Aminopeptidase N, 16.7 µM (active) on SUMO-activating enzyme [11], 37.7 µM (active) at SUMO-activating enzyme [12] and > 43.8 µM (inactive) in [13].
With `COc1cccc(C#Cc2cnc3c(c2)C(=O)N([C@H](C)CO)C[C@H](C)[C@@H](CN(C)C(=O)C2CCCCC2)O3)c1`, the AC50 in [14] was 1.58 µM (active); in test [15] it was 29.4 µM (active); in test [16], 722 nM (active); in test [17], 643 nM (active); in test [18] it was 803 nM (active).
Consider `O=c1c(-c2nc3ccccc3s2)cccn1Cc1ccc(Cl)c(Cl)c1`, for which the EC50 in test [19] was 2.18 µM (active).
As to `CC1CCCCN1Cc1ccc(N(C)C)cc1` (stereo unspecified), the IC50 in [20] was > 100 µM (active).
Take `COC(=O)Nc1nc2cc(Sc3ccccc3)ccc2[nH]1` [FENBENDAZOLE]: the IC50 was 204 nM (active) in test [21]; > 20 µM (inactive) in [22]; 1 nM (active) in test [23]; 1 nM (active) in [24]; > 20 µM (inactive) in [25]; > 20 µM (inactive) in test [26]. Also, the IC50 was > 20 µM (inactive) in [27]; 195 nM (active) in [28]; > 20 µM (inactive) in [29]; 67.3 nM (active) in test [30]; 3 nM (active) in [31]; > 40 µM (inactive) in test [32].
`O=C(c1ccc(-n2sc3ccccc3c2=O)cc1)N1CCOCC1`: in test [33], the IC50 is 13.1 µM (active).
